In general, AC50 refers to the concentration giving half of the maximal activity seen.

The target of this assay is T1, His6-TEV-PPARγ-(234-505) (Homo sapiens, UniProt P37231).
T1 construct: The His6-TEV-PPARγ-(234-505) protein for assay was expressed and purified; TEV cleavage site (N); made in house
T1 sequence (P37231 234-505): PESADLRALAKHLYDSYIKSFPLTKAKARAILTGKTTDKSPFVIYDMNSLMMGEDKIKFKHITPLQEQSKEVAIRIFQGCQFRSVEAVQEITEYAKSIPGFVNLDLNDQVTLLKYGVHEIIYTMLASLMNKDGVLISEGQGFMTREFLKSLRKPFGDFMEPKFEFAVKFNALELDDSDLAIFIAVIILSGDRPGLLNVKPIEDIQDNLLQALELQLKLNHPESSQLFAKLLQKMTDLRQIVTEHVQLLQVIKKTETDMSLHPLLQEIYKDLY
The assay is described as follows: TR-FRET Assay to Measure Co-R Peptide Recruitment to PPARγ. Format: biochemical. The settings on record: Co-R peptide recruitment to PPARγ; read-out: TR-FRET AC50. The gist of the method: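 Corepressor recruitment is measured by adding terbium-labeled anti-His antibody and FITC SMRT-ID2 peptide, at 5 and 200 nM final, after a 20-minute room-temperature protein–compound incubation. After one further hour, signal is converted to percent response between DMSO and 500 nM T0070907 wells.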
For orientation: TR-FRET usually uses a lanthanide donor and a delayed reading to cut background.
For the compound `COc1cc(-c2cc(C(=O)N3CCC(C(=O)NCc4ncccn4)CC3)n[nH]2)c(Cl)cn1` [1-[5-(5-chloro-2-methoxypyridin-4-yl)-1H-pyrazole-3-carbonyl]-N-[(pyrimidin-2-yl)methyl]piperidine-4-carboxamide], the AC50 was greater than 1000 nM.

Turning to `Cc1cc(CNC(=O)C2CCN(C(=O)c3cc(-c4ccncc4)[nH]n3)CC2)ccn1` [N-[(2-methylpyridin-4-yl)methyl]-1-[5-(pyridin-4-yl)-1H-pyrazole-3-carbonyl]piperidine-4-carboxamide], the AC50 is greater than 1000 nM.

As to `CC(C)(C)Oc1ccc(CNC(=O)C2CCN(C(=O)c3cc(-c4ccncc4)[nH]n3)CC2)cc1` [N-{[4-(tert-butoxy)phenyl]methyl}-1-[5-(pyridin-4-yl)-1H-pyrazole-3-carbonyl]piperidine-4-carboxamide], the AC50 was greater than 1000 nM.

Turning to `Cc1ccc([C@@H](C)NC(=O)C2CCN(C(=O)c3cc(-c4ccncc4)[nH]n3)CC2)cc1` [N-[(1R)-1-(4-methylphenyl)ethyl]-1-[5-(pyridin-4-yl)-1H-pyrazole-3-carbonyl]piperidine-4-carboxamide], the AC50 was greater than 1000 nM.

In the case of `COc1cccc(OC)c1CNC(=O)C1CCN(C(=O)c2cc(-c3ccncc3)[nH]n2)CC1` [N-[(2,6-dimethoxyphenyl)methyl]-1-[5-(pyridin-4-yl)-1H-pyrazole-3-carbonyl]piperidine-4-carboxamide], the concentration at half-maximal activity (AC50) is greater than 1000 nM.

`COc1cc(-c2cc(C(=O)N3CCC(C(=O)NCc4ccn5c(C)c(C)nc5c4)CC3)n[nH]2)c(Cl)cn1` [1-[5-(5-chloro-2-methoxypyridin-4-yl)-1H-pyrazole-3-carbonyl]-N-({2,3-dimethylimidazo[1,2-a]pyridin-7-yl}methyl)piperidine-4-carboxamide]: the AC50 was greater than 1000 nM.

On to `COc1ccccc1CNC(=O)C1CCN(C(=O)c2cc(-c3ccncc3)[nH]n2)CC1` [N-[(2-methoxyphenyl)methyl]-1-[5-(pyridin-4-yl)-1H-pyrazole-3-carbonyl]piperidine-4-carboxamide], for which the AC50 is greater than 1000 nM.

On to `O=C(NCc1cnc2c(c1)CCC2)C1CCN(C(=O)c2cc(-c3ccncc3)[nH]n2)CC1` [N-({5H,6H,7H-cyclopenta[b]pyridin-3-yl}methyl)-1-[5-(pyridin-4-yl)-1H-pyrazole-3-carbonyl]piperidine-4-carboxamide], for which the AC50 was greater than 1000 nM.

With `O=C(NC1CCCCC1)C1CCN(C(=O)c2cc(-c3ccncc3)[nH]n2)CC1` [N-cyclohexyl-1-[5-(pyridin-4-yl)-1H-pyrazole-3-carbonyl]piperidine-4-carboxamide], the AC50 was greater than 1000 nM.

Regarding `CCC1(CNC(=O)C2CCN(C(=O)c3cc(-c4cc(OC)ncc4Cl)[nH]n3)CC2)COC1` [1-[5-(5-chloro-2-methoxypyridin-4-yl)-1H-pyrazole-3-carbonyl]-N-[(3-ethyloxetane-3-yl)methyl]piperidine-4-carboxamide], the AC50 is greater than 1000 nM.

`COc1cc(-c2cc(C(=O)N3CCC(C(=O)NC4CCCCO4)CC3)n[nH]2)c(F)cn1` (stereo not drawn) [1-[5-(5-fluoro-2-methoxypyridin-4-yl)-1H-pyrazole-3-carbonyl]-N-(oxan-2-yl)piperidine-4-carboxamide]: the AC50 was greater than 1000 nM.

For `CC1CCC(NC(=O)C2CCN(C(=O)c3cc(-c4ccnc(N5CCCC5)c4)[nH]n3)CC2)CC1` (stereo not drawn) [N-(4-methylcyclohexyl)-1-{5-[2-(pyrrolidin-1-yl)pyridin-4-yl]-1H-pyrazole-3-carbonyl}piperidine-4-carboxamide], the concentration at half-maximal activity (AC50) is greater than 1000 nM.

As to `COc1cc(-c2cc(C(=O)N3CCC(C(=O)Nc4nc(C)cn4C)CC3)n[nH]2)c(Cl)cn1` [1-[5-(5-chloro-2-methoxypyridin-4-yl)-1H-pyrazole-3-carbonyl]-N-(1,4-dimethyl-1H-imidazol-2-yl)piperidine-4-carboxamide], the AC50 was greater than 1000 nM.

For `CC(C)(C)c1ccc(CNC(=O)C2CCN(C(=O)c3cc(-c4ccncc4)[nH]n3)CC2)cc1` [N-[(4-tert-butylphenyl)methyl]-1-[5-(pyridin-4-yl)-1H-pyrazole-3-carbonyl]piperidine-4-carboxamide], the AC50 is greater than 1000 nM.

Consider `COc1cc(-c2cc(C(=O)N3CCC(C(=O)NC4CCC(=O)CC4)CC3)n[nH]2)ccn1` [1-[5-(2-methoxypyridin-4-yl)-1H-pyrazole-3-carbonyl]-N-(4-oxocyclohexyl)piperidine-4-carboxamide], for which the AC50 is greater than 1000 nM.

Consider `O=C(N[C@H]1CC[C@H](O)CC1)C1CCN(C(=O)c2cc(-c3ccncc3)[nH]n2)CC1`, for which the half-maximal activity concentration (AC50) was greater than 1000 nM.

In the case of `O=C(NCc1ccccc1Cl)C1CCN(C(=O)c2cc(-c3ccncc3)[nH]n2)CC1` [N-[(2-chlorophenyl)methyl]-1-[5-(pyridin-4-yl)-1H-pyrazole-3-carbonyl]piperidine-4-carboxamide], the AC50 was greater than 1000 nM.

`COc1ccc(Cl)cc1CNC(=O)C1CCN(C(=O)c2cc(-c3ccncc3)[nH]n2)CC1` [N-[(5-chloro-2-methoxyphenyl)methyl]-1-[5-(pyridin-4-yl)-1H-pyrazole-3-carbonyl]piperidine-4-carboxamide]: the AC50 was greater than 1000 nM.

For the compound `O=C(NCCN1CCCC1)C1CCN(C(=O)c2cc(-c3ccncc3)[nH]n2)CC1` [1-[5-(pyridin-4-yl)-1H-pyrazole-3-carbonyl]-N-[2-(pyrrolidin-1-yl)ethyl]piperidine-4-carboxamide], the AC50 is greater than 1000 nM.

As to `COc1cc(-c2cc(C(=O)N3C[C@H]4CC[C@@H]3CC4C(=O)NCc3cccc(Cl)c3)n[nH]2)c(F)cn1` (relative stereo) [(1R,4S,5R*)—N-[(3-chlorophenyl)methyl]-2-[5-(5-fluoro-2-methoxypyridin-4-yl)-1H-pyrazole-3-carbonyl]-2-azabicyclo[2.2.2]octane-5-carboxamide], the AC50 is greater than 1000 nM.

As to `COc1cc(-c2cc(C(=O)N3CCC(C(=O)NCC4(O)CC4)CC3)n[nH]2)c(Cl)cn1` [1-[5-(5-chloro-2-methoxypyridin-4-yl)-1H-pyrazole-3-carbonyl]-N-[(1-hydroxycyclopropyl)methyl]piperidine-4-carboxamide], the AC50 was greater than 1000 nM.

On to `COc1ccnc(NC(=O)C2CCN(C(=O)c3cc(-c4ccncc4)[nH]n3)CC2)c1` [N-(4-methoxypyridin-2-yl)-1-[5-(pyridin-4-yl)-1H-pyrazole-3-carbonyl]piperidine-4-carboxamide], for which the AC50 is greater than 1000 nM.

Turning to `Cn1cc(CNC(=O)C2CCN(C(=O)c3cc(-c4ccncc4)[nH]n3)CC2)cn1` [N-[(1-methyl-1H-pyrazol-4-yl)methyl]-1-[5-(pyridin-4-yl)-1H-pyrazole-3-carbonyl]piperidine-4-carboxamide], the AC50 was greater than 1000 nM.

As for `CCC(CC)NC(=O)C1CCN(C(=O)c2cc(-c3ccncc3)[nH]n2)CC1` [N-(pentan-3-yl)-1-[5-(pyridin-4-yl)-1H-pyrazole-3-carbonyl]piperidine-4-carboxamide], the half-maximal activity concentration (AC50) was greater than 1000 nM.

Consider `COc1cc(-c2cc(C(=O)N3CCC(C(=O)NCC4COCCO4)CC3)n[nH]2)c(Cl)cn1` (stereo not drawn) [1-[5-(5-chloro-2-methoxypyridin-4-yl)-1H-pyrazole-3-carbonyl]-N-[(1,4-dioxan-2-yl)methyl]piperidine-4-carboxamide], for which the AC50 is greater than 1000 nM.

Turning to `COc1cc(-c2cc(C(=O)N3CCC(C(=O)NCc4cc(C)on4)CC3)n[nH]2)c(Cl)cn1` [1-[5-(5-chloro-2-methoxypyridin-4-yl)-1H-pyrazole-3-carbonyl]-N-[(5-methyl-1,2-oxazol-3-yl)methyl]piperidine-4-carboxamide], the AC50 was greater than 1000 nM.

`COc1cc(-c2cc(C(=O)N3CCC(C(=O)N[C@H]4CCCc5cccnc54)CC3)n[nH]2)c(Cl)cn1` [1-[5-(5-chloro-2-methoxypyridin-4-yl)-1H-pyrazole-3-carbonyl]-N-[(8S)-5,6,7,8-tetrahydroquinolin-8-yl]piperidine-4-carboxamide]: the AC50 was greater than 1000 nM.

With `COc1cc(-c2cc(C(=O)N3CCC(C(=O)NCc4cnc5nccn5c4)CC3)n[nH]2)c(Cl)cn1` [1-[5-(5-chloro-2-methoxypyridin-4-yl)-1H-pyrazole-3-carbonyl]-N-({imidazo[1,2-a]pyrimidin-6-yl}methyl)piperidine-4-carboxamide], the AC50 was greater than 1000 nM.

As for `O=C(NCc1ccccc1Cl)C1CCN(C(=O)c2cc(-c3cccnc3)[nH]n2)CC1` [N-[(2-chlorophenyl)methyl]-1-[5-(pyridin-3-yl)-1H-pyrazole-3-carbonyl]piperidine-4-carboxamide], the AC50 was greater than 1000 nM.

Consider `COc1cc(-c2cc(C(=O)N3C[C@@H]4[C@H](C3)[C@H]4C(=O)NCc3cccc(Cl)c3)n[nH]2)c(F)cn1`, for which the AC50 was greater than 1000 nM.

As for `CCc1csc(CNC(=O)C2CCN(C(=O)c3cc(-c4ccncc4)[nH]n3)CC2)n1` [N-[(4-ethyl-1,3-thiazol-2-yl)methyl]-1-[5-(pyridin-4-yl)-1H-pyrazole-3-carbonyl]piperidine-4-carboxamide], the AC50 is greater than 1000 nM.

As to `O=C(NC1CCC(CCO)CC1)C1CCN(C(=O)c2cc(-c3ccncc3)[nH]n2)CC1` (stereo not drawn) [N-[4-(2-hydroxyethyl)cyclohexyl]-1-[5-(pyridin-4-yl)-1H-pyrazole-3-carbonyl]piperidine-4-carboxamide], the AC50 is greater than 1000 nM.

Consider `O=C(c1cc(-c2ccncc2)[nH]n1)N1CCC(C(=O)N2CCCCC2)CC1` [4-{3-[4-(piperidine-1-carbonyl)piperidine-1-carbonyl]-1H-pyrazol-5-yl}pyridine], for which the AC50 was greater than 1000 nM.

Source of the values: patent US12606541B2, “PPARg modulators and methods of use” (Eisai R&D Management Co., Ltd., priority 2020, dated 2026).
